# “Also recorded” adds a separate entry of the source.
# Tests used:
# [1] = molecular target: T1, Electrophorus electricus AChE (EeAChE) (Electrophorus electricus, UniProt O42275); assay: Inhibition constant and mechanism vs EeAChE, Dixon's method; assay type: biochemical; settings: for inhibition mechanism on EeAChE: Dixon's plot, best fitting model; for α, EeAChE: mixed inhibition, α > 1 free enzyme, α < 1 enzyme–substrate complex; for Ki: three substrate and five inhibitor concentrations, read-out: Ki ± SD, EeAChE
# T1 construct: purchased Sigma-Aldrich (Milan, Italy)
# T1 sequence (O42275 24-633): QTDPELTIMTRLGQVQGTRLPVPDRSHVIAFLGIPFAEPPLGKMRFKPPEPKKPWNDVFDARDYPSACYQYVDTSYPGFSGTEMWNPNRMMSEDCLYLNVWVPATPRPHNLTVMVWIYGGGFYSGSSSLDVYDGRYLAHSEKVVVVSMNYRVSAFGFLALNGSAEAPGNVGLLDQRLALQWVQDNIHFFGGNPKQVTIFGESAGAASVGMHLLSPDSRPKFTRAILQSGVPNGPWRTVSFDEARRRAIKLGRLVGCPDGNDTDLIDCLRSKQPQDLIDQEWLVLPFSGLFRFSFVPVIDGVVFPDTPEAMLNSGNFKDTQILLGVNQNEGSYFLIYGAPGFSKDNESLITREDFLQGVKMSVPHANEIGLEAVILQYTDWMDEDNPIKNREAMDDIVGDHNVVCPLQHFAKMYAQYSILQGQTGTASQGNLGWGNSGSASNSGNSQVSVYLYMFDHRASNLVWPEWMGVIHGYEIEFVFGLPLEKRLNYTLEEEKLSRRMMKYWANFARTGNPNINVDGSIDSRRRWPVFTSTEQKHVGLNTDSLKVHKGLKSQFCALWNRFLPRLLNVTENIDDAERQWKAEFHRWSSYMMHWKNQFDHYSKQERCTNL
# Protocol: . The recorded data were analyzed with the enzyme kinetic module of SigmaPlot to find the best fitting model of inhibition using the linear regression analysis. The reference kinetic models used in the regression analysis were competitive, noncompetitive, uncompetitive, and mixed. Each determination was repeated five times, and incorrect values were discarded to reduce the standard deviation within the limit of 5%. In this way, the regression lines obtained have a linear regression coefficient (R^2) higher than 0.95. Dixon’s plots of all tested compounds are reported in the Supporting Information (Figures S1–S12).
# 18, 22, 25, 26, 28, and 30 toward eqBChE). For each compound, a 500 μM stock solution was prepared in H2O/DMSO or in 10^–2 M HCl and diluted in water to prepare solutions of opportune concentrations to introduce in the cuvette volumes ranging from 30 to 100 μL, to obtain the desired final concentrations. The maximum amount of DMSO used for the preparation of the stock solution was calculated to have a DMSO content in cuvette <0.033%.
# Three milliliters of 0.1 M phosphate buffer (pH = 7.4) containing DTNB (0.25 mM) and EeAChE (0.083 UmL^–1) or eqBChE (0.083 UmL^–1) was mixed with the opportune volume of the inhibitor solution to obtain a final inhibitor concentration in cuvette between 90 and 1800 nM. With this solution, the blank was made. […]. The absorbance variations were measured at 412 nm at 25 °C between 0.5 and 1.5 min.
# To determine the inhibition constants (Ki) and the inhibition mechanisms, the rates of hydrolysis at three different concentrations of substrate in the presence of five different concentrations of inhibitor were measured.
# tau protein = molecular target: T2, tau protein (Homo sapiens, UniProt P10636); assay: Inhibition of tau aggregation in intact E. coli cells, thioflavin-S; assay type: cell-based, Escherichia coli; settings: [I] = 100 μM
# T2 construct: expressed in transfected cells; host or cells: E. coli BL21 (DE3) with pTARA and pRKT42
# T2 sequence (P10636 1-441 isoform P10636-8): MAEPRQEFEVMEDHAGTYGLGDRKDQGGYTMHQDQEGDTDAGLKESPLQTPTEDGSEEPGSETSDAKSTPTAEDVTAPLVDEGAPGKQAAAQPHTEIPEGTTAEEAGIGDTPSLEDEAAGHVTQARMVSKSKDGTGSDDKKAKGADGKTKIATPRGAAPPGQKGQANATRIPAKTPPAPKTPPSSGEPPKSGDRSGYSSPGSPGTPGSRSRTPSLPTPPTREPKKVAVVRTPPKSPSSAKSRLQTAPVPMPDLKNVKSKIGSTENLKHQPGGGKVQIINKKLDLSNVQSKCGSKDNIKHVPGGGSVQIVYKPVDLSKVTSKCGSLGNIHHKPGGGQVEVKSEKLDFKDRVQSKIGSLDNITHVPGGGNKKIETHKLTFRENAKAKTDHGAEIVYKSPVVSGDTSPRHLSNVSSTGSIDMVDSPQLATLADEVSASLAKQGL
# Protocol: The anti-aggregating effect of the tested compounds was monitored by a cell-based assay in intact Escherichia coli cells that overexpress either the Aβ42 peptide or tau protein, which upon overexpression form insoluble inclusion bodies that were stained with thioflavin-S, an amyloid specific dye.[36] The percentages of inhibition toward Aβ42 and tau aggregation were determined at an inhibitor concentration of 100 μM, and the obtained results are reported in Table 7.
# E. coli BL21 (DE3) competent cells were transformed with pTARA containing the RNA-polymerase gene of T7 phage (T7RP) under the control of the promoter PBAD. E. coli BL21 (DE3) with pTARA competent cells were transformed with the pRKT42 vector encoding four repeats of the tau protein in two inserts. For overnight culture preparation, 10 mL of the M9 medium containing 0.5% of glucose, 50 μg·mL^–1 of ampicillin, and 12.5 μg·mL^–1 of chloramphenicol was inoculated with a colony of BL21 (DE3) bearing the plasmids to be expressed at 37 °C. For expression of the tau protein, the required volume of overnight culture to obtain 1:500 dilution was added to the fresh M9 minimal medium containing 0.5% of glucose, 50 μg·mL^–1 of ampicillin, 12.5 μg·mL^–1 of chloramphenicol, and 250 μM Th-S. The bacterial culture was grown at 37 °C and 250 rpm. When the cell density reached OD600 = 0.6, an amount of 980 μL of culture was transferred into Eppendorf tubes of 1.5 mL with 10 μL of each compound to be tested in DMSO and 10 μL of arabinose at 25%. The final concentration of the drug was fixed at 100 μM. The samples were grown overnight at 37 °C and 1400 rpm using a ThermoMixer (Eppendorf, Hamburg, Germany). As negative control (maximal presence of tau), the same amount of DMSO without the drug was added in the sample. In parallel, non-induced samples (in the absence of arabinose) were also prepared and used as positive controls (absence of tau). In addition, these samples were used to assess the potential intrinsic toxicity of the compounds and to confirm the correct bacterial growth.
# Th-S (T1892) and other chemical reagents were purchased from Sigma (St. Louis, MO). The Th-S stock solution ([…]) was prepared in double-distilled water purified through a Milli-Q system (Millipore, USA). Th-S fluorescence and absorbance were tracked using a DTX 800 plate reader Multimode Detector equipped with a Multimode Analysis Software (Beckman-Coulter, USA). Filters of 430/35 and 485/20 nm were used for the excitation and emission wavelengths, respectively. Filters of 535/25 nm were also used for the absorbance determination. To normalize the Th-S fluorescence as a function of the bacterial concentration, OD600 was obtained using a Shimadzu UV-2401 PC UV–vis spectrophotometer (Shimadzu, Japan). Note that the fluorescence normalization was carried out considering as 100% the Th-S fluorescence of the bacterial cells expressing the peptide or protein in the absence of drug and 0% the Th-S fluorescence of the bacterial cells not expressing the peptide or protein. A minimum of five independent assays (with three replicates for assay) was performed for each tested compound. More assays were performed to obtain a SEM < 5% with a maximum of 10 independent assays.
Structure (SMILES),inhibition mechanism on EeAChE [1],"α, EeAChE [1]",Ki [1],inhibition at 100 µM (tau protein)
"c1ccc(CNCCCCCCNc2ccccn2)cc1 [Compound 25, N^1-Benzyl-N^6-(pyridin-2-yl)hexane-1,6-diamine]",mixed,0.8,995 ± 374 nM,6.7%
"Brc1ccc(CNCCCCCCNc2ccccn2)cc1 [Compound 26, N^1-(4-Bromobenzyl)-N^6-(pyridin-2-yl)hexane-1,6-diamine]",,,,7.3%
"COc1cc(CNCCCCCCNc2ccccn2)ccc1O [Compound 30, 2-Methoxy-4-(((6-(pyridin-2-ylamino)hexyl)amino)methyl)phenol]",,,,12.8%
"c1ccc(CNCCCCCNc2ccccn2)cc1 [Compound 23, N^1-Benzyl-N^5-(pyridin-2-yl)pentane-1,5-diamine]",mixed,2.2,743 ± 316 nM,7%
"c1ccc(CNCCCCCCNc2ncccn2)cc1 [Compound 13, N^1-Benzyl-N^6-(pyrimidin-2-yl)hexane-1,6-diamine]",mixed,0.3,426 ± 132 nM,12.6%
"COc1ccccc1CNCCCCCCNc1ccccn1 [Compound 28, N^1-(2-Methoxybenzyl)-N^6-(pyridin-2-yl)hexane-1,6-diamine]",mixed,1.2,1320 ± 622 nM,17%
"c1cnc(NCCCCCCNCc2c[nH]c3ccccc23)nc1 [Compound 22, N^1-((1H-Indol-3-yl)methyl)-N^6-(pyrimidin-2-yl)hexane-1,6-diamine]",,,,6.8%
"Oc1cccc(CNCCCCCCNc2ncccn2)c1 [Compound 19, 3-(((6-(Pyrimidin-2-ylamino)hexyl)amino)methyl)phenol]",uncompetitive; also recorded: uncomp,,509 ± 18 nM,9.9%
"Oc1cccc(CNCCCCCCNc2ncccn2)c1O [Compound 20, 3-(((6-(Pyrimidin-2-ylamino)hexyl)amino)methyl)benzene-1,2-diol]",,,,4.6%
"c1ccc(CNCCCCCNc2ncccn2)cc1 [Compound 9, N^1-Benzyl-N^5-(pyrimidin-2-yl)pentane-1,5-diamine]",mixed,7.5,312 ± 108 nM,2.6%
"COc1cc(CNCCCCCCNc2ncccn2)ccc1O [Compound 18, 2-Methoxy-4-(((6-(pyrimidin-2-ylamino)hexyl)amino)methyl)phenol]",,,,1%

# Source: paper PMC8569681, “New Pyrimidine and Pyridine Derivatives as Multitarget Cholinesterase Inhibitors: Design, Synthesis, and In Vitro and In Cellulo Evaluation” (ACS Chemical Neuroscience, 2021)
